What all share (type): cell-based
The target in data set [1] is T1, hERG (Homo sapiens, UniProt Q12809).
T1 construct: expressed in transfected cells; host or cells: HEK293
As to the kind of experiment: hERG Flux (Tl+ flux, FLIPR). The note with it: HEK293 cells expressing hERG. The protocol:
HEK293 cells stably-expressing hERG channels were grown (37° C., 5% CO2) in Dulbecco's Modified Eagle's Media supplemented with 10% Sigma fetal bovine serum, non-essential amino acids, 2 mM L-glutamine and 500 μg/ml G418, at incubator. Cell dissociation buffer was used to extract the cells from flasks, which were then plated into 384-well CORNING® poly-D-lysine coated black/clear plates at a density of 2×10^4 cells per well (20 μl) in 10% serum media, and incubated for 15-24 hours at 37° C. in a 5% CO2 incubator until a confluent monolayer of cells was obtained. […]
The test compound was diluted to 10 mM DMSO in 60 μl. […] Assay-ready plates were generated by stamping 2.5 μl from the DMSO serially diluted plate, which was prepared on the Velocity 11 BIOCEL®. Aqueous plates were created by adding 48 μl of EP buffer and then were diluted 30-45 minutes before the assay was read on the FLIPR®. […] Assay-ready aqueous plates were prepared and diluted on a CyBio liquid handler.
Cells loaded with dye were read on the FLIPR®384 (Molecular Devices, Sunnyvale, Calif.), which excites the dye using the 488 nm line of an argon laser. […]
The dynamic range of the assay was determined from blanks and totals wells. […] Data were analyzed by fitting maximum amplitudes of change in fluorescence for Tl^+ flux for a given condition of test compound.
On the technique in general: hERG is a cardiac potassium channel; its block is linked to QT prolongation.

Data set [2] addresses T2, human cardiac sodium channel, SCN5A (Homo sapiens, UniProt Q14524).
T2 construct: expressed in transfected cells; host or cells: HEK-293
Description: Sodium channel patch clamp. The note with it: read-out: Na+ channel patch clamp (% Inhib.). On the procedure: Whole-cell patch-clamp was used to directly measure inward sodium currents in HEK-293 cells expressing the human cardiac sodium channel, SCN5A. The compound was tested at a protein-free aqueous buffer. For determining steady state inhibition, sodium currents were elicited every 5 seconds using the following voltage protocol: cells were held at a potential of −90 mV and stepped to −20 mV for 60 ms. Effects were calculated by measuring inhibition of peak current during the test pulse to −20 mV. Rate-dependence of inhibition was assessed by stimulation at frequencies of 1 Hz and 4 Hz.
A general note: Patch clamp records ionic current or voltage across a cell membrane.

Data set [3] addresses T3, human CCR-2 (Homo sapiens, UniProt P41597).
T3 sequence (P41597 1-360 isoform P41597-2): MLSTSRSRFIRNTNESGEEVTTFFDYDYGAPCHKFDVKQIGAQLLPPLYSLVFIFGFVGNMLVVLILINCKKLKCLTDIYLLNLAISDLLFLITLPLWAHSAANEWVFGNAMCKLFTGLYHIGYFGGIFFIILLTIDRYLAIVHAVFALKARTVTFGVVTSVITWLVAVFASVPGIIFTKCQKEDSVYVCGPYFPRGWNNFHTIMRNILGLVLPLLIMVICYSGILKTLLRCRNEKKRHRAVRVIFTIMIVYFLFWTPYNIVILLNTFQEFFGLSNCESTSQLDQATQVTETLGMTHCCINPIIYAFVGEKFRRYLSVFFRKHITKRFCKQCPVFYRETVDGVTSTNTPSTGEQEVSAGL
As to the kind of experiment: CCR-2 calcium mobilization, THP-1 cells. The note with it: MCP-1 10 nM, read-out: CCR-2 Ca2+ Flux IC50. The protocol: All conditions were tested in duplicate.

The target of data set [4] is CCR-2 (Homo sapiens, UniProt P41597). As to the kind of experiment: CCR-2 whole blood integrin (CD11b) upregulation. The protocol:
A CCR-2-dependent CD11b upregulation assay was established with human whole blood. Whole blood (100 μl) was pre-incubated with a concentration range of Example 1 at 37° C. for 10 minutes. […] The reactions were incubated for 30 minutes at 37° C. […] The samples were then incubated for 30 minutes on ice in the dark. […] Data acquisition and analysis were performed using CellQuestPro software. A sequential gating strategy was used to analyze the CD14^high CD11b^+ monocyte population.

What is called IC50 is the concentration at which inhibition is half-maximal.

Structures are written as SMILES.

CCR-2, sequence (P41597 whole entry): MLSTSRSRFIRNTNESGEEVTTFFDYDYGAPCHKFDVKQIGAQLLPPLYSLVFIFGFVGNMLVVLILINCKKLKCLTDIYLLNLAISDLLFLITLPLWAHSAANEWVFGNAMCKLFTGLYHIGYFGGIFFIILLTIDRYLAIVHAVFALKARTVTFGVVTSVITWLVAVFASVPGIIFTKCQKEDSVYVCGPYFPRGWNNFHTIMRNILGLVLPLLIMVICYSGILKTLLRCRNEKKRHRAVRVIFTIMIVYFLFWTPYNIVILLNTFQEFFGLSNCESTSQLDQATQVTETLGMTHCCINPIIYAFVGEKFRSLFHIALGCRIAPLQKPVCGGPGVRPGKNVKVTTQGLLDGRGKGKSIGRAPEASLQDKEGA
T2 sequence (Q14524 whole entry): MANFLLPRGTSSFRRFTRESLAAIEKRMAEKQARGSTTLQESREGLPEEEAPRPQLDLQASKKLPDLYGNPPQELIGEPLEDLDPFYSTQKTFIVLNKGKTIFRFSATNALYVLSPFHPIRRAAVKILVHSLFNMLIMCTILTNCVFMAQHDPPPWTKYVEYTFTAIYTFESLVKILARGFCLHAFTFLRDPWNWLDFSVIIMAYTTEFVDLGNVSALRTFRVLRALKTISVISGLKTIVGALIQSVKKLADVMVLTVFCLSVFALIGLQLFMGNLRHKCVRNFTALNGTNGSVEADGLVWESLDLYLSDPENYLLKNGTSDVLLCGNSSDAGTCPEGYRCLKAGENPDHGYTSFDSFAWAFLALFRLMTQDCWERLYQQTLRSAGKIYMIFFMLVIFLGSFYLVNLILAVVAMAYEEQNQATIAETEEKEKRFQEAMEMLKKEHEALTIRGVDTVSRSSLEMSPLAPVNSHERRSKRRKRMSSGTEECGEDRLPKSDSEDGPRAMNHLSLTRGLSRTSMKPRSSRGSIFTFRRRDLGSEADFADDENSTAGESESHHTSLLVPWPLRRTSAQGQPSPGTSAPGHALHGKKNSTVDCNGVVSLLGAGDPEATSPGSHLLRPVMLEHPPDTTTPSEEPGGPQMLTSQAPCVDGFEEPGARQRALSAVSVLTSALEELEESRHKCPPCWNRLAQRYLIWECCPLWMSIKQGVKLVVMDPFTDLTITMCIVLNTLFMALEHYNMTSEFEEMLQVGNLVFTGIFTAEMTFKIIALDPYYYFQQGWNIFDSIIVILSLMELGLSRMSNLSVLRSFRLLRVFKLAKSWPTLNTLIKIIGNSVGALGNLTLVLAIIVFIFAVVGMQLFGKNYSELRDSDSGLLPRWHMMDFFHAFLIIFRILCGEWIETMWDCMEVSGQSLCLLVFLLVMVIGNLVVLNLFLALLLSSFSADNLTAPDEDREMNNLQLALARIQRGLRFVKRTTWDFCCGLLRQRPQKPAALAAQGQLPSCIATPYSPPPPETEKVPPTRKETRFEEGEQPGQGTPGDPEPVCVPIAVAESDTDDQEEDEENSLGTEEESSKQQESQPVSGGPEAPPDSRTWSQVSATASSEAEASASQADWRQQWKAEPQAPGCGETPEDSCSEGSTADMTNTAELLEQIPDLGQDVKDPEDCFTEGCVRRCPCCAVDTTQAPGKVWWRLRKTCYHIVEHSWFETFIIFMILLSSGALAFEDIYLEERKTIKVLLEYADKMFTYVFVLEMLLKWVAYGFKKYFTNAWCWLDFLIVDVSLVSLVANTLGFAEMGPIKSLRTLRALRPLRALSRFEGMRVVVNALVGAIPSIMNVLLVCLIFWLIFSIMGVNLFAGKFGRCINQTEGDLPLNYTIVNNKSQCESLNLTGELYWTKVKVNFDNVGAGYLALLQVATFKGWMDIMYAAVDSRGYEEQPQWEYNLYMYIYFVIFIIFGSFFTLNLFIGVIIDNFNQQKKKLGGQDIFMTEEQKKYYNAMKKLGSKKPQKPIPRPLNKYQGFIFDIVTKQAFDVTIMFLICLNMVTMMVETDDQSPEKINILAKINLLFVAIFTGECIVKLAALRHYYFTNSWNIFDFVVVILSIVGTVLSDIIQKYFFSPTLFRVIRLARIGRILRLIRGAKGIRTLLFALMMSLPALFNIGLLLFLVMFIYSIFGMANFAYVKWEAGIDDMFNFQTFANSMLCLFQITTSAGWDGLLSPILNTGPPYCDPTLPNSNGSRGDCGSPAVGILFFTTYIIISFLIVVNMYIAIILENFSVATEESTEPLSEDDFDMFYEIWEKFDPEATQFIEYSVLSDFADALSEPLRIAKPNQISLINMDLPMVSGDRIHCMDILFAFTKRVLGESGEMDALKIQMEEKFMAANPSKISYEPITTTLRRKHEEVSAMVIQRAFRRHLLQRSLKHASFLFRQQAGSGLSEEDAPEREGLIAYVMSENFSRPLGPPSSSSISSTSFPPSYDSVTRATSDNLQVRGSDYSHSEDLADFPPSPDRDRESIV
T1 sequence (Q12809 whole entry): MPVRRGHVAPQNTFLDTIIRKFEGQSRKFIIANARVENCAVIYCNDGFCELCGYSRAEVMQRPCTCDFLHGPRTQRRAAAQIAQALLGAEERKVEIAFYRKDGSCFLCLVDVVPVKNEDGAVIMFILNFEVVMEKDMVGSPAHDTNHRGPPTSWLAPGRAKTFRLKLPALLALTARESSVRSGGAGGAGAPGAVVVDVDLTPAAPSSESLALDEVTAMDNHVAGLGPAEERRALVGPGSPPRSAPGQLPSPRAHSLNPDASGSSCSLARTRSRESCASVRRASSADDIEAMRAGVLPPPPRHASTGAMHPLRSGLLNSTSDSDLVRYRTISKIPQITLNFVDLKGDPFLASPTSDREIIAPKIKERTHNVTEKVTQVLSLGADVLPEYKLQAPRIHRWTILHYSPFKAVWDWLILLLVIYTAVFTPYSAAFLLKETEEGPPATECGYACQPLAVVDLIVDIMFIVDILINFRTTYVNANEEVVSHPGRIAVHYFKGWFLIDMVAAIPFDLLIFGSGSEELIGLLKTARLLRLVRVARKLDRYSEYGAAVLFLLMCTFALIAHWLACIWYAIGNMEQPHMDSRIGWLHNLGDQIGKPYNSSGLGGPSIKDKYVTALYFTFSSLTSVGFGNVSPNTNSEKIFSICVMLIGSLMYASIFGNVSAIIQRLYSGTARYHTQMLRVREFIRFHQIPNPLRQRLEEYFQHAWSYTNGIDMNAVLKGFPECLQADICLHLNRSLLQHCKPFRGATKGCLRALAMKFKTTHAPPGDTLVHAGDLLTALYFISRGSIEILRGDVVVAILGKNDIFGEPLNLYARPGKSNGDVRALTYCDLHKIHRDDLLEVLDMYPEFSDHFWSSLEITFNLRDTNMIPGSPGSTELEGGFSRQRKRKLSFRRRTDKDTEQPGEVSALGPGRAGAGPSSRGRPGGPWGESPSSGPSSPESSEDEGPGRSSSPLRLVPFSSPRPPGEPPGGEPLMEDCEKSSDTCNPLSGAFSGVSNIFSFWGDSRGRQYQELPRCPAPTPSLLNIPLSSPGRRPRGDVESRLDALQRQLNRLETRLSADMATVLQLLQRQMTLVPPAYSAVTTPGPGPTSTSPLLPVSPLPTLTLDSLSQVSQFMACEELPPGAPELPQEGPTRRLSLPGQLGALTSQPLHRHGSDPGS

Turning to `CC(=O)N[C@@H]1C[C@H](NC(C)(C)C)CC[C@@H]1N1CC[C@H](Nc2ncnc3cc(C(C)(C)C)nn23)C1=O` [Example 1, N-((1R,2 S,5R)-5-(tert-Butylamino)-2-((S)-3-(7-tert-butylpyrazolo[1,5-a][1,3,5]triazin-4-ylamino)-2-oxopyrrolidin-1-yl)cyclohexyl)acetamide], the IC50 in data set [1] is > 80000 nM; in data set [3], 2.9 ± 1.5 nM; in data set [4] (human whole blood, MCP-1 10 nM), 4.8 nM. In addition, the inhibition at 10000 nM in data set [2] (10,000 nM) lay in the range of 15 to 20%. In addition, the inhibition at 30000 nM in data set [2] (30,000 nM) is 13 to 16%. The “activity against CCR-2 versus CCR-5 (Table 5)” value in data set [4] (comparison of CCR-2 and CCR-5 CD11b IC50) was “equipotent against CCR-2 and CCR-5”.
